According to patent publication US10913766B2, “Liver specific delivery-based entecavir prodrug, nucleoside cyclic phosphate compound, and application thereof” (ZHEJIANG PALO ALTO PHARMACEUTICALS, INC., priority 2017, dated 2021):

Assays:
[1] = design: species or system Male SD (Sprague-Dawley) rats; details: rat, in vivo, po, 0.036 mmol/kg
Protocol: Male SD (Sprague-Dawley) rats, weighing 180 to 300 g, were provided by Shanghai Xipuer-Beikai Experimental Animal Co., Ltd. The male animals were acclimatized to the environment for more than 3 days, and fasted for 12 hours overnight before the experiment, but were allowed to drink water. […] Before administration, the animals were checked to determine whether their body weights met the experimental requirements. Twelve rats were selected for grouping, two rats in each group. The drug solutions were administered intragastrically to the rats in an amount of 0.036 mmol/kg. The rats were euthanized with carbon dioxide gas and samples were collected, at 0.5 h, 1 h, 3 h, 6 h, 12 h, and 24 h, respectively. […] The supernatant plasma was taken, to which 10% trichloroacetic acid (containing PMPA as an internal standard, at a concentration of 100 ng/mL) was immediately added as a precipitant at a volume 5 times that of the plasma, to obtain plasma sample solutions. […] Two ceramic beads were added to each of the homogenization tubes for homogenization to obtain tissue homogenate samples. 100 μL of each biological sample was taken, placed in a 1.5 mL test tube, and centrifuged for 5 min. 20 μL of the supernatant was taken and mixed uniformly with 180 μL of water and then analyzed by LC-MS/MS. LC-MS/MS-AJ (Triple Quad 5500, AB SCIEX) was used for analysis of the samples. Chromatographic Column: Acquity UPLC HSS T3 (2.1×50 mm, 1.8 μm); Column Temperature: 40° C.; Flow Rate: 0.5 mL/min. Mobile Phase A: 0.1% formic acid in water, Mobile Phase B: Acetonitrile Solution. The mass spectrometry was performed with an electrospray ionization source (Turbo Ionspray) as an ion source, in a positive ion mode, at a capillary voltage of 3.0 kV, at a temperature of 500° C., and at a desolvation gas flow of 1000 L/h. The scanning time, cone voltage, collision energy, and the ion reaction for quantitative analysis were shown in Table 6 below: The concentration of the metabolite from each of the compounds in the liver was plotted as a function of time on a bar chart.

hepatitis B virus (HBV) = details: read-out: EC50, antiviral activity in vitro; cited from earlier work
[2] = system: lamivudine-resistant virus strains; details: read-out: EC50, inhibitory activity against lamivudine-resistant virus strains; cited from earlier work
[3] = In-vitro metabolism in mice liver microsomes, release of ETVMP (Example 24); format: in vitro ADME, mouse; details: result in words
Text: (§1) Human liver microsomes (HLM) were purchased from IVT (In Vitro Technologies) (Product No. X008070, Batch No. SSP). Rat liver microsomes (RLM) were purchased from BD with a batch number of 16298, and mice liver microsomes (MLM) were purchased from Research Institute for Liver Diseases (Shanghai) Co., Ltd. (RILD), with a batch number of BQNI.
(§2) The test compounds PA3001, PA3002, PA3003, and PA3004 were synthesized by Zhejiang Palo Alto Pharmaceuticals, Inc., and dissolved in methanol (from Sinopharm Chemical Reagent Co., Ltd.) to prepare storage solutions at a concentration of 25 mM.
(§3) The enzymatic reaction was carried out in a 100 mM KH2PO4 buffer solution (pH 7.4), with a test compound at a concentration of 25 μM, human liver microsomes at a concentration of 2 mg/ml, and NADPH at a concentration of 2 mM. The reaction was initiated by NADPH which was added last. After the reaction was carried out for 5 min in a constant-temperature shaking water bath kettle, methanol at a volume of 1.5 times that of the reaction mixture was added immediately to terminate the reaction.
(§4) Each sample was centrifuged at a maximum speed of 13,600 rpm for 20 minutes using an Eppendorf tabletop centrifuge. The supernatant was taken, and was blow-dried by a nitrogen blower and then re-dissolved in mobile phase A (0.1% formic acid (v/v) in water).
(§5) • Analysis Column: Waters, Acquity UPLC HSS T3 Column • Flow Rate: 0.5 ml/min • Column Temperature: 40 degrees Celsius • III. Mass Spectrometry Condition • Ion Source: Electrospray Ionization Source • Ion Mode: Positive Ion Mode • Capillary Voltage: 3.0 kV • Temperature: 500° C. • Desolvation Gas Flow Rate: […] • Scan Time: 0.025 s • Cone Voltage: 40 V • Collision Energy: 18 eV • Q1 (m/z): 358 • Q3 (m/z): 152

[4] = In-vitro metabolism in rat liver microsomes, release of ETVMP (Example 24); format: in vitro ADME; details: result in words
Text: as §1, §2, §3, §4, §5

[5] = In-vitro metabolism in human liver microsomes, release of ETVMP (Example 24); format: in vitro ADME; details: result in words
Text: as §1, §2, §3, §4, §5

Compound	AUC0-24 h of ETVMP in Liver [1] [nmol·h/g]	AUC0-24 h of ETVMP in Plasma [1] [nmol·h/g]	AUC0-24 h of ETVMP in Brain Tissue [1] [nmol·h/g]	Activated in vitro into monophosphate metabolite ETVMP by mouse liver microsomes [3]	Activated in vitro into monophosphate metabolite ETVMP by rat liver microsomes [4]	Activated in vitro into monophosphate metabolite ETVMP by human liver microsomes [5]	Efficiency of activation by human liver microsomes into ETVMP compared with comparative compound PA3001 [5]	Rank of conversion rate among tested compounds, mouse liver microsomes ([3]; Table 3)	Rank of conversion rate among tested compounds, rat liver microsomes ([4]; Table 3)	Rank of conversion rate among tested compounds, human liver microsomes ([5]; Table 3)	EC50 (hepatitis B virus (HBV)) [nM]	EC50 [2] [nM]
C=C1[C@@H](CO)[C@@H](O)C[C@@H]1n1cnc2c(=O)[nH]c(N)nc21 [ETV, 2-amino-9-[(1S,3S,4S)-4-hydroxy-3-hydroxymethyl-2-methylenecyclopentyl]-1,9-dihydro-6H-purine-6-one, reference compound]	16.6	0.55									4	10 to 59
C=C1[C@H](COP2(=O)OCC[C@H](c3cc(F)cc(Cl)c3)O2)[C@@H](O)C[C@@H]1n1cnc2c(=O)[nH]c(N)nc21 (stereo partly drawn) [PA3002]	8.1	0.03					significantly greater					
C=C1[C@H](COP2(=O)OCC[C@H](c3cc(Cl)ccc3F)O2)[C@@H](O)C[C@@H]1n1cnc2c(=O)[nH]c(N)nc21 (stereo partly drawn) [PA3004]	11.6	0.09		activated	activated	activated	significantly greater	highest rate	highest rate	highest rate		

More lines, main results first:

AUC0-24 h of ETVMP in Liver [1] [nmol·h/g]	AUC0-24 h of ETVMP in Plasma [1] [nmol·h/g]	AUC0-24 h of ETVMP in Brain Tissue [1] [nmol·h/g]	Activated in vitro into monophosphate metabolite ETVMP by mouse liver microsomes [3]	Activated in vitro into monophosphate metabolite ETVMP by rat liver microsomes [4]	Activated in vitro into monophosphate metabolite ETVMP by human liver microsomes [5]	Efficiency of activation by human liver microsomes into ETVMP compared with comparative compound PA3001 [5]	Rank of conversion rate among tested compounds, mouse liver microsomes ([3]; Table 3)	Rank of conversion rate among tested compounds, rat liver microsomes ([4]; Table 3)	Rank of conversion rate among tested compounds, human liver microsomes ([5]; Table 3)	Compound	EC50 (hepatitis B virus (HBV)) [nM]	EC50 [2] [nM]
16.2	0.17	0.2	activated	activated	activated					C=C1[C@H](COP2(=O)OCC[C@H](c3cccc(Cl)c3)O2)[C@@H](O)C[C@@H]1n1cnc2c(=O)[nH]c(N)nc21 (stereo partly drawn) [PA3001]		
18.9	0.19	1.1	activated	activated	activated					C=C1[C@H](COP2(=O)OCC[C@H](c3ccncc3)O2)[C@@H](O)C[C@@H]1n1cnc2c(=O)[nH]c(N)nc21 (stereo partly drawn) [PA3003]		
9.0	0.08									C=C1[C@H](COP2(=O)OCC[C@H](c3cc(Cl)ccc3Cl)O2)[C@@H](O)C[C@@H]1n1cnc2c(=O)[nH]c(N)nc21 (stereo partly drawn) [PA3017]		
